Results: US20150057243A1, “Compositions and Methods for the Inhibition of Methyltransferases” (Northeastern University, priority 2012, published 2015)

Tests used:
[1] = target: T1, human betaine-homocysteine S-methyltransferase (Homo sapiens, UniProt Q93088); conditions: cited from earlier work
T1 sequence (Q93088 1-406): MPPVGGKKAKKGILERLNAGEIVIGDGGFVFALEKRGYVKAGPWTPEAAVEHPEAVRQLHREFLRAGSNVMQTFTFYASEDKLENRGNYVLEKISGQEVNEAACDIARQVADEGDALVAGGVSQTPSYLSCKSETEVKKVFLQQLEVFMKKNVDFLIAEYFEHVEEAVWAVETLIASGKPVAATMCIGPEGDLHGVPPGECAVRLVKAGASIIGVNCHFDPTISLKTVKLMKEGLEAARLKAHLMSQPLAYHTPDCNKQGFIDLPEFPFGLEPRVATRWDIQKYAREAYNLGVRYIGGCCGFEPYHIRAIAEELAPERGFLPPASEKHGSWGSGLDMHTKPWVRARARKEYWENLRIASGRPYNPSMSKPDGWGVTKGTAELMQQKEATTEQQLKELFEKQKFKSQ

TPMT [2] = target: T2, TPMT (Homo sapiens, UniProt P51580); experiment: specificity assay with AdoVin (time-dependent UV absorbance change); format: biochemical; conditions: FIG. 34
T2 construct: made in house
T2 sequence (P51580 1-245): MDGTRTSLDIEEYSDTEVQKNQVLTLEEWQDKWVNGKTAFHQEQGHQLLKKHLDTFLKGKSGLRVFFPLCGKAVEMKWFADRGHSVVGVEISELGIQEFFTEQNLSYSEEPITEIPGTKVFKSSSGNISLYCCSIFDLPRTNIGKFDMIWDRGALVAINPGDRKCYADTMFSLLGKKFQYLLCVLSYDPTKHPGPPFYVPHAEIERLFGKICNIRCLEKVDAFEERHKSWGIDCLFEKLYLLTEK
From the text: In comparison, the concentration of 4-methoxybenzylthiol decreased in the presence of AdoVin, indicating a reaction with AdoVin.

TPMT [3] = target: T2, TPMT; conditions: data referred to for comparison; cited from earlier work
[4] = test system: Candida albicans and various Aspergillus species; conditions: cited from earlier work
Leishmania promastigotes = conditions: Lawrence 1993, Avila 1993; cited from earlier work
mammalian cells = conditions: cited from earlier work
trypanosomes = conditions: Goldberg 1997; cited from earlier work
cells = conditions: cited from earlier work
[5] = target: T3, histidine-tagged TPMT enzyme (Homo sapiens, UniProt P51580); experiment: AdoVin-TNB binding assay, histidine-tagged TPMT isolated using nickel spin column; conditions: XIC (FIG. 30 top panel)
T3 construct: made in house
T3 sequence (P51580 1-245): T2 sequence (P51580 1-245)
Protocol: The histidine-tagged TPMT enzyme was isolated using nickel spin column. 610.0 m/z at 8.6 min is for the TNB-AdoVin adduct (confirmed by tandem mass analysis), 411.0 m/z at 1.6 min is for AdoVin, and 162.0 m/z at 6.2 min is for vinthionine. […] The peak around 1.58 minutes with m/z 411.0 corresponds to AdoVin, while the peak around 6.2 min with m/z 162.0 corresponds to vinthionine.
Recombinant histidine-tagged human thiopurine methyltransferase (TPMT, EC 2.1.1.67) and S-adenosylhomocysteine nucleosidase (MTAN, EC 3.2.2.9) were purified as described. See Cannon, L. M. et al. Anal. Biochem. 2002, 308, 35/-363; Lee, J. E. et al. Acta Crystallogr. D. Biol. Crystallogr. 2001, 57, 150-152. The recombinant E. coli homocysteine S-methyltransferase (HMT, EC 2.1.1.10) was a gift from Steven G Clark (UCLA Department of Chemistry and Biochemistry, Los Angeles, Calif.), and purified as described. See Vinci, C. R.; Clarke, S. G. J. Biol. Chem. 2010, 285(27), 20526-20531; Vinci, C. R.; Clarke, S. G. J. Biol. Chem. 2007, 282(12), 8604-8612.

C=CSCCC(N)C(=O)O (racemic) [DL-S-Vinylhomocysteine]
inhibition of human betaine-homocysteine S-methyltransferase [1]: not to be an inhibitor

COc1ccc(CS)cc1 [4-methoxybenzylthiol]
time-dependent UV absorbance / concentration change in the presence of AdoVin (TPMT [2]): decreased
reaction with AdoMet (the natural substrate for TPMT) (TPMT [3]): reacts

O=[N+]([O-])c1ccc(O)cc1 [4-nitrophenol]
time-dependent UV absorbance / concentration change in the presence of AdoVin (TPMT [2]): No change was observed
reaction with AdoMet (the natural substrate for TPMT) (TPMT [3]): does not react

C[S+](CC[C@H](N)C(=O)[O-])C[C@H]1O[C@@H](n2cnc3c(N)ncnc32)[C@H](O)[C@@H]1O (stereo partly drawn) [AdoMet, S-Adenosyl-methionine]
active transport into Candida albicans and various Aspergillus species [4]: actively transported
active transport into Leishmania promastigotes (Leishmania promastigotes): actively transported
active transport into mammalian cells (mammalian cells): not actively transported
active transport into trypanosomes (trypanosomes): actively transported

C=CSCC[C@H](N)C(=O)O [L-S-Vinylhomocysteine]
active transport into cells (cells): actively transported into cells

C=CSCC[C@H](N)C(=O)O [vinthionine, S-Demethyl-5-vinyl-L-methionine]
cell permeability (cells): cell permeable
presence in the enzyme complex [5]: absence
